Assay results as given in patent publication US9556231B2, “Beta-hairpin peptidomimetics as CXC4 antagonists” (POLYPHOR AG, priority 2011, dated 2017).
Bridge positions count the residues as written; N and C are the ends. Square brackets hold non-standard residues; d marks the D form. Peptide text beside a SMILES is read from it. Lys(iPr) = CC(C)NCCCC[C@H](N)C(=O)O; Orn(iPr) = CC(C)NCCC[C@H](N)C(=O)O

Columns and labels:
[1] = Cytotoxicity, MTT reduction assay, HELA cells; assay type: cell-based; details: human
Experimental: (§1) Namalwa cells (CXCR4 natively expressing non-adherent cells, ATCC CRL-1432) were cultured in RPMI1640 plus 10% FBS, and pen/strept. HELA cells were maintained in RPMI1640 plus 10% FBS, pen/strept and 2 mM L-glutamine. Cos-7 cells were grown in DMEM medium with […] glucose supplemented with 10% FCS, pen/strept and 2 mM L-glutamine. All cell lines were grown at 37° C. at 5% CO2. Cell media, media supplements, PBS-buffer, HEPES, antibiotic/antimycotic, pen/strept, non essential amino acid, L-glutamine, β-mercaptoethanol and sera were purchased from Gibco (Pailsey, UK). All fine chemicals were supplied by Merck (Darmstadt, Germany).
(§2) The cytotoxicity of the peptides to HELA cells (Acc57) and COS-7 cells (CRL-1651) was determined using the MTT reduction assay (T. Mossman, J. Immunol. Meth. 1983, 65, 55-63; M. V. Berridge, A. S. Tan, Arch. Biochem. Biophys. 1993, 303, 474-482). Briefly, the method was as follows: 4000 HELA cells/well and 3400 COS-7 cells/well were seeded and grown in 96-well microtiter plates for 24 h at 37° C. at 5% CO2. Thereafter, time zero (Tz) was determined by MTT reduction (see below). The supernatant of the remaining wells was discarded, and fresh medium and compounds in serial dilutions (12.5, 25 and 50 μM, triplicates; 0 μM, blank) were pipetted into the wells. After incubation of the cells for 48 h at 37° C. at 5% CO2 the supernatant was discarded again and 100 μL MTT reagent (0.5 mg/mL in RPMI1640 and DMEM, respectively)/well was added. Following incubation at 37° C. for 2-4 h the media were aspirated and the cells were spiked (100 μL isopropanol/well). The absorbance of the solubilized formazan was measured at 595 nm (OD595peptide). For each concentration averages were calculated from triplicates. The percentage of growth was calculated as follows: (OD595peptide−OD595Tz)/(OD595blank−OD595Tz)×100%. The GI50 (Growth Inhibition) concentrations were calculated for each peptide by using a trend line function for the concentrations (50, 25, 12.5 and 0 μM), the corresponding percentages and the value 50, (=TREND (C50:C0,%50:%0,50).

[2] = Cytotoxicity, MTT reduction assay, COS-7 cells; assay type: cell-based; details: African green monkey
Experimental: as §1, §2

[3] = Plasma stability, mouse plasma; assay type: in vitro ADME; details: 37° C.; for mouse pl. T1/2: up to 1440 min
Experimental: The stability of the peptides in human and mouse plasma was determined by applying the following method: 346.5 μL/deep well of freshly thawed human plasma (Basler Blutspende-dienst) and mouse plasma (Harlan Sera-Lab, UK), respectively, were spiked with 3.5 μL/well of compound dissolved in DMSO/H2O (90/10 [v/v], 1 mM, triplicate) and incubated at 37° C. At t=0, 15, 30, 60, 120, 240 and 1440 min aliquots of 50 μL were transferred to filtration plate wells containing 150 μL/well of 2% formic acid in acetonitrile. Following shaking for 2 min the occurred suspensions were filtrated by vacuum. 100 μL of each filtrate were transferred to a propylene microtiter plate and dried under N2. The residual solids were reconstituted by adding 100 μL/well of water/acetonitrile, 95/5 (v/v)+0.2% formic acid and analyzed by LC/MS as follows: Column: Waters, XBridge C18, mobile phases: (A) water+0.1% formic acid and (B) acetonitrile/water, 95/5 (v/v)+0.1% formic acid, gradient: 5%-100% (B) in 1.8 minutes, electrospray ionization, MRM detection (triple quadrupole). The peak areas were determined and triplicate values are averaged. The stability is expressed in percent of the initial value at t=0·(tx/t0×100). By using the TREND function of EXCEL (Microsoft Office 2003) T1/2 were determined.

[4] = Pharmacokinetic study (PK), i.v., CD-1 mice; assay type: in vivo; details: mouse, i.v. 1 mg/kg; for level at 0.083 h / level at 0.25 h / level at 0.5 h / level at 1 h / level at 2 h / level at 3 h / level at 4 h / AUC(0-inf) / Cmax / clearance / half-life / Vd: male, CD-1, in vivo, iv; for level at 0.083 h / level at 0.25 h / level at 0.5 h / level at 1 h / level at 2 h / level at 3 h / level at 4 h: read-out: Calc. Conc. (plasma); for AUC(0-inf) / Cmax / clearance / half-life / Vd: one-compartmental model; for Vd: read-out: Vdis
Experimental: For the compounds of Ex. 1, Ex. 2, Ex. 3, Ex. 4, Ex. 5 and Ex. 6 pharmacokinetic studies after intravenous (i.v.) administration were performed.
30 grams (±20%) male CD-1 mice obtained from Charles River Laboratories Deutschland GmbH were used. The vehicle, phosphate buffered saline, was added to give a final concentration of 0.5 mg/mL of the compound. The volume was 2 mL/kg and the compound was injected to give a final intravenous dose of 1 mg/kg. Approximately 300-400 μL of blood was removed under light isoflurane anesthesia by cardiac puncture at predetermined time intervals (5, 15, 30 min and 1, 2, 3, 4, hours) and added to heparinized tubes. Plasma was removed from pelleted cells upon centrifugation and frozen at −80° C. prior to HPLC-MS analysis.
Aliquots of 50 μL each of mouse plasma of untreated aminals (“blank” mouse plasma) were spiked with known amounts of the compounds Ex. 1, Ex. 2, Ex. 3, Ex. 4, Ex. 5 and Ex. 6 in order to obtain 10 plasma calibration samples for each compound in the range 1-4000 ng/mL. Aliquots of 50 μL each of mouse plasma from treated animals were used as plasma study samples.
All plasma samples were spiked with an appropriate internal standard and extracted with acetonitrile containing 2% formic acid. Supernatants were evaporated to dryness under nitrogen and the remaining solids reconstituted in water/acetonitrile 95/5 (v/v)+0.2% formic acid.
Extracts were then analyzed by reverse-phase chromatography (Acquity BEH C18, 100×2.1 mm, 1.7 μm column, Waters for Ex. 1 and Acquity HSS C18 SB, 100×2.1 mm, 1.8 μm column, Waters for Ex. 2, Ex. 3, Ex. 4, Ex. 5 and Ex. 6), using the following conditions: Ex. 1, mobile phases: (A) water/acetonitrile 95/5 (v/v)+0.1% formic acid, (B) acetonitrile/water 95/5 (v/v)+0.1% formic acid, gradient: 1% (B) 0-0.1 min, 15% (B) 0.1-2.5 min for Ex. 1 and 1% (B) 0-0.1 min, 40% (B) 0.1-2.5 min for Ex. 2, Ex. 3, Ex. 4, Ex. 5 and Ex. 6. The detection and quantification was performed by mass spectrometry, with electrospray interface in positive mode and selective fragmentation of analytes (4000 Q Trap mass spectrometer, AB Sciex).
PK parameters were calculated by WinNonLin™ software version 5.3 (Pharsight-A Certara™ Company, Mountain View, Calif. 94041 USA) using a one-compartmental model analysis. PK parameters were determined by least-square fitting of the model to the experimental data.

[5] = 1440 min, read-out: mouse pl. cpd left at 1440 min
[6] = MTT, 48 h, up to 50 μM, read-out: Cytotoxicity Hela Cells GI50
[7] = MTT, 48 h, up to 50 μM, read-out: Cytotoxicity Cos-7 Cells GI50

| Structure (SMILES) | GI50 at 48 h [1] [µM] | GI50 at 48 h [2] [µM] | remaining at 24 h [3, 5] [%] | mouse pl. T1/2 [3] [min] | level at 0.083 h [4] [ng/mL] | level at 0.25 h [4] [ng/mL] | level at 0.5 h [4] [ng/mL] | level at 1 h [4] [ng/mL] | level at 2 h [4] [ng/mL] | level at 3 h [4] [ng/mL] | level at 4 h ([4]; 4 h) [ng/mL] | AUC(0-inf) [4] [ng·h/mL] | Cmax [4] [ng/mL] | clearance [4] [mL/min/kg] | half-life [4] [min] | Vd [4] [L/kg] | GI50 at 48 h [1, 6] [µM] | GI50 at 48 h [2, 7] [µM] | remaining at 24 h, 10 μM [3, 5] [%] | Calc. Conc. (plasma) ([4]; 4 h) [ng/mL] |
| --- | --- | --- | --- | --- | --- | --- | --- | --- | --- | --- | --- | --- | --- | --- | --- | --- | --- | --- | --- | --- |
| COc1ccc(C[C@H]2NC(=O)[C@H](C)NC(=O)[C@H](CO)NC(=O)[C@@H]3CSSC[C@H](NC(=O)[C@H](Cc4ccc(O)cc4)NC(=O)[C@H](CCCNC(=N)N)NC(=O)[C@H](CCCNC(C)C)NC2=O)C(=O)N[C@@H](Cc2ccc(O)cc2)C(=O)N[C@@H](CCC(N)=O)C(=O)N[C@@H](CCCCNC(C)C)C(=O)N2CCC[C@@H]2C(=O)N2CCC[C@H]2C(=O)N[C@@H](Cc2ccc(O)cc2)C(=O)N[C@@H](Cc2c[nH]cn2)C(=O)N[C@@H](C)C(=O)N3)cc1 [Ex. 4, cyclo(-Tyr^1-His^2-Ala^3-Cys^4-Ser^5-Ala^6-^DTyr(Me)^7-Orn(iPr)^8-Arg^9-Tyr^10-Cys^11-Tyr^12-Gln^13-Lys(iPr)^14-^DPro^15-Pro^16-), disulfide bond between Cys^4 and Cys^11] (cyclo(YHACSA[dY](Me)[Orn(iPr)]RYCYQ[Lys(iPr)][dP]P); disulfide 4-11) | > 50 | > 50 | 60 | 1440 | 1620 | 869 | 775 | 504 | 159 | 25 | 13 | 1340 | 1620 | 12.4 | 36 | 0.607 |  |  |  |  |
| CC(C)NCCCC[C@@H]1NC(=O)[C@H](CCC(N)=O)NC(=O)[C@H](Cc2ccc(O)cc2)NC(=O)[C@@H]2CSSC[C@H](NC(=O)[C@H](Cc3ccc(O)cc3)NC(=O)[C@H](Cc3c[nH]cn3)NC(=O)[C@H](Cc3ccc(O)cc3)NC(=O)[C@@H]3CCCN3C(=O)[C@H]3CCCN3C1=O)C(=O)N[C@@H](CO)C(=O)N[C@@H](C)C(=O)N[C@H](Cc1ccc(O)cc1)C(=O)N[C@@H](CCCNC(C)C)C(=O)N[C@@H](CCCNC(=N)N)C(=O)N[C@@H](Cc1ccc(O)cc1)C(=O)N2 [Ex. 5, cyclo(-Tyr^1-His^2-Tyr^3-Cys^4-Ser^5-Ala^6-^DTyr^7-Orn(iPr)^8-Arg^9-Tyr^10-Cys^11-Tyr^12-Gln^13-Lys(iPr)^14-^DPro^15-Pro^16-), disulfide bond between Cys^4 and Cys^11] (cyclo(YHYCSA[dY][Orn(iPr)]RYCYQ[Lys(iPr)][dP]P); disulfide 4-11) |  |  |  | 1440 | 1310 | 984 | 350 | 503 | 150 | 49 | 33 | 1200 | 1310 | 13.9 | 54 | 1.04 | > 50 | > 50 | 81 |  |
| COc1ccc(C[C@@H]2NC(=O)[C@H](Cc3c[nH]cn3)NC(=O)[C@H](Cc3ccc(O)cc3)NC(=O)[C@@H]3CCCN3C(=O)[C@H]3CCCN3C(=O)[C@H](CCCCNC(C)C)NC(=O)[C@H](CCC(N)=O)NC(=O)[C@H](Cc3ccc(O)cc3)NC(=O)[C@@H]3CSSC[C@H](NC2=O)C(=O)N[C@@H](CO)C(=O)N[C@@H](C)C(=O)N[C@H](Cc2ccc(OC)cc2)C(=O)N[C@@H](CCCNC(C)C)C(=O)N[C@@H](CCCNC(=N)N)C(=O)N[C@@H](Cc2ccc(O)cc2)C(=O)N3)cc1 [Ex. 6, cyclo(-Tyr^1-His^2-Tyr(Me)^3-Cys^4-Ser^5-Ala^6-^DTyr(Me)^7-Orn(iPr)^8-Arg^9-Tyr^10-Cys^11-Tyr^12-Gln^13-Lys(iPr)^14-^DPro^15-Pro^16-), disulfide bond between Cys^4 and Cys^11] (cyclo(YHY(Me)CSA[dY](Me)[Orn(iPr)]RYCYQ[Lys(iPr)][dP]P); disulfide 4-11) |  |  |  | 1440 | 686 | 435 | 215 | 75 | 36 | 13 |  | 409 | 686 | 40.8 | 48 | 2.98 | > 50 | > 50 | 68 | 7 |
